Results: paper PMC6954215, “Structures of β-glycosidase LXYL-P1-2 reveals the product binding state of GH3 family and a specific pocket for Taxol recognition” (Communications Biology, 2020)

Columns and labels:
LXYL-P1-2 = target: T1, LXYL-P1-2 (Lentinula edodes, UniProt G8GLP2, E529Q); assay: X-ray crystallography, […] Å; type: binding; settings: co-crystallised with XDT, cleaved in crystal; product complex with xylose; 0.1 M Hepes pH 7.5, 16 °C
T1 construct: expressed in Pichia pastoris GS115 from pPIC3.5K-lxyl-p1-2; KEX2 cleavage after Arg35, mature N-terminus Asp36; endoglycosidase-treated for crystals; tetramer

[1] = target: β-xylosidase/glucosidase LXYL-P1-2 (Lentinula edodes); assay: SEC; molecular weight by gel filtration; conditions not given
[2] = target: β-xylosidase/glucosidase LXYL-P1-2 (Lentinula edodes); assay: crystal structure; native crystal, endoglycosidase-treated protein at 10 mg/ml, hanging drop at 16 °C, 13% PEG3350, 0.1 M Tris-HCl pH 8.5, 0.2% MgCl2; 2.4 Å; tetramer in the asymmetric unit

| Compound | X-ray crystallography, 2.27 Å (LXYL-P1-2) | stoichiometry N [1] | stoichiometry N [2] |
| --- | --- | --- | --- |
| CC(=O)O[C@@]12CO[C@@H]1C[C@H](O)[C@@]1(C)C(=O)[C@H](O)C3=C(C)[C@@H](OC(=O)[C@H](O)[C@@H](NC(=O)c4ccccc4)c4ccccc4)C[C@@](O)([C@@H](OC(=O)c4ccccc4)[C@H]21)C3(C)C [10-deacetyltaxol] | The electron density clearly shows the existence of xylose and DT |  |  |
| OC1OC[C@@H](O)[C@H](O)[C@H]1O (stereo partly shown) [xylose] | The electron density clearly shows the existence of xylose and DT |  |  |
| β-xylosidase/glucosidase LXYL-P1-2 (enzyme) |  | 4 | 4 |
